In ChEMBL document CHEMBL4387764, “Structure-activity relationship study of thiazolyl-hydroxamate derivatives as selective histone deacetylase 6 inhibitors” (Bioorg Med Chem, 2019):

Experiments:
in vitro [1] = details: CD-1, mouse, liver microsomes
in vitro [2] = details: CD-1, mouse, liver microsomes; remark: listed apart in the source
in vitro [3] = details: CD-1, mouse, liver microsomes; remark: listed apart in the source
in vitro [4] = details: CD-1, mouse, liver microsomes; remark: listed apart in the source
in vitro [5] = details: CD-1, mouse, liver microsomes; remark: listed apart in the source
in vitro [6] = details: CD-1, mouse, liver microsomes; remark: listed apart in the source
in vitro [7] = details: human, liver microsomes
in vitro [8] = details: human, liver microsomes; remark: listed apart in the source
in vitro [9] = details: human, liver microsomes; remark: listed apart in the source
in vitro [10] = details: human, liver microsomes; remark: listed apart in the source
in vitro [11] = details: human, liver microsomes; remark: listed apart in the source
in vitro [12] = details: human, liver microsomes; remark: listed apart in the source

O=C(CCc1csc(/C=C/c2ccc(F)cc2)n1)NO gave a remaining at 0 h, 1 µM (in vitro [1]) of 100%, a remaining at 0.5 h, 1 µM (in vitro [2]) of 95.8% and a remaining at 0 h, 1 µM (in vitro [3]) of 107%. It also gave a remaining at 5 min, 1 µM (in vitro [4]) of 99.8%, a remaining at 0.25 h, 1 µM (in vitro [5]) of 68.6% and a remaining at 0.5 h, 1 µM (in vitro [6]) of 25.2%. For the same compound, the remaining at 0 h, 1 µM (in vitro [7]) was 100%, the remaining at 0.5 h, 1 µM (in vitro [8]) was 112% and the remaining at 0 h, 1 µM (in vitro [9]) was 106%. It also gave a remaining at 5 min, 1 µM (in vitro [10]) of 105%, a remaining at 0.25 h, 1 µM (in vitro [11]) of 103% and a remaining at 0.5 h, 1 µM (in vitro [12]) of 94.6%.
